The source made the active and inactive calls. The rule behind the calls is not given here.
System: CCRIS mutagenicity, Ames/micronucleus/aberration tests
Assay: CCRIS mutagenicity studies
[1] = Test System: AMES SALMONELLA TYPHIMURIUM, Strain/Indicator: TA98, Metabolic Activation: NONE, Method: PREINCUBATION
[2] = Test System: AMES SALMONELLA TYPHIMURIUM, Strain/Indicator: TA100, Metabolic Activation: NONE, Method: PREINCUBATION
[3] = Test System: AMES SALMONELLA TYPHIMURIUM, Strain/Indicator: TA98, Metabolic Activation: NONE, Method: STANDARD PLATE
[4] = Test System: AMES SALMONELLA TYPHIMURIUM, Strain/Indicator: TA100, Metabolic Activation: NONE, Method: STANDARD PLATE

Measured: mutagenic call

O=[N+]([O-])c1ccc(Nc2ncnc3nc[nH]c23)cc1
inactive: Test System: AMES SALMONELLA TYPHIMURIUM, Strain/Indicator: TA98(1,8-DNP), Metabolic Activation: NONE, Method: PREINCUBATION inactive; negative | Test System: AMES SALMONELLA TYPHIMURIUM, Strain/Indicator: TA98(1,8-DNP), Metabolic Activation: RAT, LIVER, S-9, PCB, Method: PREINCUBATION inactive; negative | Test System: AMES SALMONELLA TYPHIMURIUM, Strain/Indicator: TA98(NR), Metabolic Activation: NONE, Method: PREINCUBATION inactive; negative | Test System: AMES SALMONELLA TYPHIMURIUM, Strain/Indicator: TA98(NR), Metabolic Activation: RAT, LIVER, S-9, PCB, Method: PREINCUBATION inactive; negative | [1] inactive; negative | Test System: AMES SALMONELLA TYPHIMURIUM, Strain/Indicator: TA98, Metabolic Activation: RAT, LIVER, S-9, PCB, Method: PREINCUBATION inactive; negative | Test System: AMES SALMONELLA TYPHIMURIUM, Strain/Indicator: TA100(1,8-DNP), Metabolic Activation: NONE, Method: PREINCUBATION inactive; negative | Test System: AMES SALMONELLA TYPHIMURIUM, Strain/Indicator: TA100(1,8-DNP), Metabolic Activation: RAT, LIVER, S-9, PCB, Method: PREINCUBATION inactive; negative | Test System: AMES SALMONELLA TYPHIMURIUM, Strain/Indicator: TA100(NR), Metabolic Activation: NONE, Method: PREINCUBATION inactive; negative | Test System: AMES SALMONELLA TYPHIMURIUM, Strain/Indicator: TA100(NR), Metabolic Activation: RAT, LIVER, S-9, PCB, Method: PREINCUBATION inactive; negative | [2] inactive; negative | Test System: AMES SALMONELLA TYPHIMURIUM, Strain/Indicator: TA100, Metabolic Activation: RAT, LIVER, S-9, PCB, Method: PREINCUBATION inactive; negative | Test System: AMES SALMONELLA TYPHIMURIUM, Strain/Indicator: YG1020, Metabolic Activation: NONE, Method: PREINCUBATION inactive; negative | Test System: AMES SALMONELLA TYPHIMURIUM, Strain/Indicator: YG1020, Metabolic Activation: RAT, LIVER, S-9, PCB, Method: PREINCUBATION inactive; negative | Test System: AMES SALMONELLA TYPHIMURIUM, Strain/Indicator: YG1021, Metabolic Activation: NONE, Method: PREINCUBATION inactive; negative | Test System: AMES SALMONELLA TYPHIMURIUM, Strain/Indicator: YG1021, Metabolic Activation: RAT, LIVER, S-9, PCB, Method: PREINCUBATION inactive; negative | Test System: AMES SALMONELLA TYPHIMURIUM, Strain/Indicator: YG1024, Metabolic Activation: NONE, Method: PREINCUBATION inactive; negative | Test System: AMES SALMONELLA TYPHIMURIUM, Strain/Indicator: YG1024, Metabolic Activation: RAT, LIVER, S-9, PCB, Method: PREINCUBATION inactive; negative | Test System: AMES SALMONELLA TYPHIMURIUM, Strain/Indicator: YG1025, Metabolic Activation: NONE, Method: PREINCUBATION inactive; negative | Test System: AMES SALMONELLA TYPHIMURIUM, Strain/Indicator: YG1025, Metabolic Activation: RAT, LIVER, S-9, PCB, Method: PREINCUBATION inactive; negative | Test System: AMES SALMONELLA TYPHIMURIUM, Strain/Indicator: YG1026, Metabolic Activation: NONE, Method: PREINCUBATION inactive; negative | Test System: AMES SALMONELLA TYPHIMURIUM, Strain/Indicator: YG1026, Metabolic Activation: RAT, LIVER, S-9, PCB, Method: PREINCUBATION inactive; negative | Test System: AMES SALMONELLA TYPHIMURIUM, Strain/Indicator: YG1029, Metabolic Activation: NONE, Method: PREINCUBATION inactive; negative | Test System: AMES SALMONELLA TYPHIMURIUM, Strain/Indicator: YG1029, Metabolic Activation: RAT, LIVER, S-9, PCB, Method: PREINCUBATION inactive; negative

Cc1ccc2ccc3ccccc3c2c1C
inactive: [3] inactive; negative | Test System: AMES SALMONELLA TYPHIMURIUM, Strain/Indicator: TA98, Metabolic Activation: RAT, LIVER, S-9, AROCLOR 1254, Method: STANDARD PLATE inactive; negative | [4] inactive; negative | Test System: AMES SALMONELLA TYPHIMURIUM, Strain/Indicator: TA100, Metabolic Activation: RAT, LIVER, S-9, AROCLOR 1254, Method: STANDARD PLATE inactive; negative

C=C(C)C1CC=C(C)C(O)C1 (stereo not given)
inactive: Test System: AMES SALMONELLA TYPHIMURIUM, Strain/Indicator: TA98, Metabolic Activation: HAMSTER, LIVER, S-9, AROCLOR 1254 (10%), Method: PREINCUBATION inactive; negative | [1] inactive; negative | Test System: AMES SALMONELLA TYPHIMURIUM, Strain/Indicator: TA98, Metabolic Activation: RAT, LIVER, S-9, AROCLOR 1254 (10%), Method: PREINCUBATION inactive; negative | Test System: AMES SALMONELLA TYPHIMURIUM, Strain/Indicator: TA100, Metabolic Activation: HAMSTER, LIVER, S-9, AROCLOR 1254 (10%), Method: PREINCUBATION inactive; negative | [2] inactive; negative | Test System: AMES SALMONELLA TYPHIMURIUM, Strain/Indicator: TA100, Metabolic Activation: RAT, LIVER, S-9, AROCLOR 1254 (10%), Method: PREINCUBATION inactive; negative | Test System: AMES SALMONELLA TYPHIMURIUM, Strain/Indicator: TA1535, Metabolic Activation: HAMSTER, LIVER, S-9, AROCLOR 1254 (10%), Method: PREINCUBATION inactive; negative | Test System: AMES SALMONELLA TYPHIMURIUM, Strain/Indicator: TA1535, Metabolic Activation: NONE, Method: PREINCUBATION inactive; negative | Test System: AMES SALMONELLA TYPHIMURIUM, Strain/Indicator: TA1535, Metabolic Activation: RAT, LIVER, S-9, AROCLOR 1254 (10%), Method: PREINCUBATION inactive; negative | Test System: AMES SALMONELLA TYPHIMURIUM, Strain/Indicator: TA1537, Metabolic Activation: HAMSTER, LIVER, S-9, AROCLOR 1254 (10%), Method: PREINCUBATION inactive; negative | Test System: AMES SALMONELLA TYPHIMURIUM, Strain/Indicator: TA1537, Metabolic Activation: NONE, Method: PREINCUBATION inactive; negative | Test System: AMES SALMONELLA TYPHIMURIUM, Strain/Indicator: TA1537, Metabolic Activation: RAT, LIVER, S-9, AROCLOR 1254 (10%), Method: PREINCUBATION inactive; negative

N/C(=N\O)c1ccc(O)c(O)c1
inactive: Test System: AMES SALMONELLA TYPHIMURIUM, Strain/Indicator: TA97, Metabolic Activation: NONE, Method: STANDARD PLATE inactive; negative | Test System: AMES SALMONELLA TYPHIMURIUM, Strain/Indicator: TA97, Metabolic Activation: RAT, LIVER, S-9, DELOR 103, Method: STANDARD PLATE inactive; negative | [3] inactive; negative | [4] inactive; negative | Test System: AMES SALMONELLA TYPHIMURIUM, Strain/Indicator: TA100, Metabolic Activation: RAT, LIVER, S-9, DELOR 103, Method: STANDARD PLATE inactive; negative | Test System: AMES SALMONELLA TYPHIMURIUM, Strain/Indicator: TA102, Metabolic Activation: NONE, Method: STANDARD PLATE inactive; negative | Test System: AMES SALMONELLA TYPHIMURIUM, Strain/Indicator: TA102, Metabolic Activation: RAT, LIVER, S-9, DELOR 103, Method: STANDARD PLATE inactive; negative
active: Test System: AMES SALMONELLA TYPHIMURIUM, Strain/Indicator: TA98, Metabolic Activation: RAT, LIVER, S-9, DELOR 103, Method: STANDARD PLATE active; positive

[Cl][Pt][Cl].c1cc2c3c(c1)CCCN3CCC2
inactive: Test System: AMES SALMONELLA TYPHIMURIUM, Strain/Indicator: TA92, Metabolic Activation: NONE, Method: STANDARD PLATE inactive; negative | [3] inactive; negative | [4] inactive; negative | Test System: AMES SALMONELLA TYPHIMURIUM, Strain/Indicator: TA2410, Metabolic Activation: NONE, Method: STANDARD PLATE inactive; negative | Test System: E. COLI, Strain/Indicator: TM6, Metabolic Activation: NONE, Method: STANDARD PLATE inactive; negative
active: Test System: E. COLI, Strain/Indicator: TM9, Metabolic Activation: NONE, Method: STANDARD PLATE active; positive

ClCCNCCCNc1c2ccccc2nc2ccccc12
active: [3] active; positive | [4] active; positive | Test System: AMES SALMONELLA TYPHIMURIUM, Strain/Indicator: TA1535, Metabolic Activation: NONE, Method: STANDARD PLATE active; positive | Test System: AMES SALMONELLA TYPHIMURIUM, Strain/Indicator: TA1536, Metabolic Activation: NONE, Method: STANDARD PLATE active; positive | Test System: AMES SALMONELLA TYPHIMURIUM, Strain/Indicator: TA1537, Metabolic Activation: NONE, Method: STANDARD PLATE active; positive | Test System: AMES SALMONELLA TYPHIMURIUM, Strain/Indicator: TA1538, Metabolic Activation: NONE, Method: STANDARD PLATE active; positive

From PubChem BioAssay AID1259407 (Chemical Carcinogenesis Research Information System (CCRIS), 2018)
